Results: patent publication US7244431B2, “Allergy vaccines and their preparation” (priority 2000, dated 2007)

Assays:
[1] = system: IgE antibodies in sera from birch pollen allergic patients; assay: ELISA detection of peptide- and rBet v 1-specific IgE antibodies; assay type: binding, human
Summary of the method: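 Sera from 60 birch pollen allergic patients (rhinoconjunctivitis and/or asthma; skin prick and CAP RAST characterized) plus one non-atopic individual, diluted 1:3, incubated overnight at 4 °C on coated plates. Bound IgE detected with 1:1000 alkaline-phosphatase-coupled mouse anti-human IgE.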

[2] = system: birch pollen allergic patients; assay: Skin prick testing of allergic patients; assay type: in vivo, human; settings: 100 μg/ml
Protocol: SPTs were performed on the individuals forearms as described ([…]. et al. (1997) J. Clin Invest. 99, 1673-168; Dreborg S: (1989) J. Am. Acad. DerMatol. 21, 820-821). […] In addition standardized skin prick solutions (birch pollen extract and histamine) (Allergopharma, Reinbek, Germany) were tested. Reactions were recorded 20 minutes after SPT by photography and by transferring the ballpoint pen-surrounded wheal area with a scotch tape to paper.

## LFPKVAPQAISSVENIEGNGGPGTIKKISFC [Peptide P2, Bet v 1-derived synthetic peptide, position aa 30-59, one cysteine added]
[1]; serum of NHS, non-allergic control individual
  IgE (OD): — (Dashes indicate reactivities below the cut-off level (OD=0.050))
[1]; serum of patient 1
  IgE (OD): — (Dashes indicate reactivities below the cut-off level (OD=0.050))
[1]; serum of patient 2
  IgE (OD): — (Dashes indicate reactivities below the cut-off level (OD=0.050))
[1]; serum of patient 3
  IgE (OD): — (Dashes indicate reactivities below the cut-off level (OD=0.050))
[1]; serum of patient 4
  IgE (OD): — (Dashes indicate reactivities below the cut-off level (OD=0.050))
[1]; serum of patient 5
  IgE (OD): — (Dashes indicate reactivities below the cut-off level (OD=0.050))
[1]; serum of patient 6
  IgE (OD): — (Dashes indicate reactivities below the cut-off level (OD=0.050))
[1]; serum of patient 7
  IgE (OD): — (Dashes indicate reactivities below the cut-off level (OD=0.050))
[1]; serum of patient 8
  IgE (OD): — (Dashes indicate reactivities below the cut-off level (OD=0.050))
[1]; serum of patient 9
  IgE (OD): — (Dashes indicate reactivities below the cut-off level (OD=0.050))
[1]; serum of patient 10
  IgE (OD): — (Dashes indicate reactivities below the cut-off level (OD=0.050))
[1]; serum of patient 11
  IgE (OD): — (Dashes indicate reactivities below the cut-off level (OD=0.050))
[1]; serum of patient 12
  IgE (OD): — (Dashes indicate reactivities below the cut-off level (OD=0.050))
[1]; serum of patient 13
  IgE (OD): — (Dashes indicate reactivities below the cut-off level (OD=0.050))
[1]; serum of patient 14
  IgE (OD): — (Dashes indicate reactivities below the cut-off level (OD=0.050))
[1]; serum of patient 15
  IgE (OD): — (Dashes indicate reactivities below the cut-off level (OD=0.050))
[1]; serum of patient 16
  IgE (OD): — (Dashes indicate reactivities below the cut-off level (OD=0.050))
[1]; serum of patient 17
  IgE (OD): — (Dashes indicate reactivities below the cut-off level (OD=0.050))
[1]; serum of patient 18
  IgE (OD): — (Dashes indicate reactivities below the cut-off level (OD=0.050))
[1]; serum of patient 19
  IgE (OD): — (Dashes indicate reactivities below the cut-off level (OD=0.050))
[1]; serum of patient 20
  IgE (OD): — (Dashes indicate reactivities below the cut-off level (OD=0.050))
[1]; serum of patient 21
  IgE (OD): — (Dashes indicate reactivities below the cut-off level (OD=0.050))
[1]; serum of patient 22
  IgE (OD): — (Dashes indicate reactivities below the cut-off level (OD=0.050))
[1]; serum of patient 23
  IgE (OD): — (Dashes indicate reactivities below the cut-off level (OD=0.050))
[1]; serum of patient 24
  IgE (OD): — (Dashes indicate reactivities below the cut-off level (OD=0.050))
[1]; serum of patient 25
  IgE (OD): — (Dashes indicate reactivities below the cut-off level (OD=0.050))
[1]; serum of patient 26
  IgE (OD): — (Dashes indicate reactivities below the cut-off level (OD=0.050))
[1]; serum of patient 27
  IgE (OD): — (Dashes indicate reactivities below the cut-off level (OD=0.050))
[1]; serum of patient 28
  IgE (OD): — (Dashes indicate reactivities below the cut-off level (OD=0.050))
[1]; serum of patient 29
  IgE (OD): — (Dashes indicate reactivities below the cut-off level (OD=0.050))
[1]; serum of patient 30
  IgE (OD): — (Dashes indicate reactivities below the cut-off level (OD=0.050))
[1]; serum of patient 31
  IgE (OD): — (Dashes indicate reactivities below the cut-off level (OD=0.050))
[1]; serum of patient 32
  IgE (OD): — (Dashes indicate reactivities below the cut-off level (OD=0.050))
[1]; serum of patient 33
  IgE (OD): — (Dashes indicate reactivities below the cut-off level (OD=0.050))
[1]; serum of patient 34
  IgE (OD): — (Dashes indicate reactivities below the cut-off level (OD=0.050))
[1]; serum of patient 35
  IgE (OD): — (Dashes indicate reactivities below the cut-off level (OD=0.050))
[1]; serum of patient 36
  IgE (OD): — (Dashes indicate reactivities below the cut-off level (OD=0.050))
[1]; serum of patient 37
  IgE (OD): — (Dashes indicate reactivities below the cut-off level (OD=0.050))
[1]; serum of patient 38
  IgE (OD): — (Dashes indicate reactivities below the cut-off level (OD=0.050))
[1]; serum of patient 39
  IgE (OD): — (Dashes indicate reactivities below the cut-off level (OD=0.050))
[1]; serum of patient 40
  IgE (OD): — (Dashes indicate reactivities below the cut-off level (OD=0.050))
[1]; serum of patient 41
  IgE (OD): — (Dashes indicate reactivities below the cut-off level (OD=0.050))
[1]; serum of patient 42
  IgE (OD): — (Dashes indicate reactivities below the cut-off level (OD=0.050))
[1]; serum of patient 43
  IgE (OD): — (Dashes indicate reactivities below the cut-off level (OD=0.050))
[1]; serum of patient 44
  IgE (OD): — (Dashes indicate reactivities below the cut-off level (OD=0.050))
[1]; serum of patient 45
  IgE (OD): — (Dashes indicate reactivities below the cut-off level (OD=0.050))
[1]; serum of patient 46
  IgE (OD): — (Dashes indicate reactivities below the cut-off level (OD=0.050))
[1]; serum of patient 47
  IgE (OD): — (Dashes indicate reactivities below the cut-off level (OD=0.050))
[1]; serum of patient 48
  IgE (OD): — (Dashes indicate reactivities below the cut-off level (OD=0.050))
[1]; serum of patient 49
  IgE (OD): — (Dashes indicate reactivities below the cut-off level (OD=0.050))
[1]; serum of patient 50
  IgE (OD): — (Dashes indicate reactivities below the cut-off level (OD=0.050))
[1]; serum of patient 51
  IgE (OD): — (Dashes indicate reactivities below the cut-off level (OD=0.050))
[1]; serum of patient 52
  IgE (OD): — (Dashes indicate reactivities below the cut-off level (OD=0.050))
[1]; serum of patient 53
  IgE (OD): — (Dashes indicate reactivities below the cut-off level (OD=0.050))
[1]; serum of patient 54
  IgE (OD): — (Dashes indicate reactivities below the cut-off level (OD=0.050))
[1]; serum of patient 55
  IgE (OD): — (Dashes indicate reactivities below the cut-off level (OD=0.050))
[1]; serum of patient 56
  IgE (OD): — (Dashes indicate reactivities below the cut-off level (OD=0.050))
[1]; serum of patient 57
  IgE (OD): — (Dashes indicate reactivities below the cut-off level (OD=0.050))
[1]; serum of patient 58
  IgE (OD): — (Dashes indicate reactivities below the cut-off level (OD=0.050))
[1]; serum of patient 59
  IgE (OD): — (Dashes indicate reactivities below the cut-off level (OD=0.050))
[1]; serum of patient 60
  IgE (OD): — (Dashes indicate reactivities below the cut-off level (OD=0.050))
[2]; individual 1
  mean wheal diameter: 0 mm
[2]; individual 2
  mean wheal diameter: 0 mm
[2]; individual 3
  mean wheal diameter: 0 mm
[2]; individual 4
  mean wheal diameter: 0 mm
[2]; individual 5
  mean wheal diameter: 0 mm
[2]; individual 6 (allergic, without birch pollen allergy)
  mean wheal diameter: 0 mm
